Literature values, collected in article PMC3437650 (Bioorganic & medicinal chemistry letters, 2008).

System: BBB choline transporter
Details: ref 11b

N,N’-(1,12-dodecandiyl)-bis-pyridinium dibromide [bPiDDB]
share of permeation into brain that uses the BBB choline transporter: ~ 90%
